From US11319317B2, “(Hetero)arylamide compound for inhibiting protein kinase activity” (Shenzhen TargetRx, Inc., priority 2017, dated 2022)
Read-outs that look alike come from different tables or passages of the source.

Tests used:
[1] = tested on: Ebola virus; conditions: in vitro; cited from earlier work
[2] = tested on: Ba/F3 parent cells; assay: Cytotoxicity experiment (CellTiter-Glo), Ba/F3 parent cells; assay type: cell-based; conditions: Ba/F3 parental cells with 8 ng/ml IL-3, 3 days incubation
Procedure: 1. […] The cell plates were placed in carbon dioxide culture and incubated overnight.
2. Preparation of test compounds: The test compounds were dissolved in DMSO and subjected to a 3.16-fold gradient dilution in triplicate, 9 concentrations were obtained, starting from the concentration of 10 μM.
3. Treatment of Cells with compounds: Compounds at various concentrations were transferred to cell plates. The cell plates were incubated in a carbon dioxide incubator for 3 days.
4. Detection: CellTiter-Glo4 reagent was added to the cell plates, which were incubated for 30 minutes at room temperature to stabilize the luminescence signal. Readings were performed using a PerkinElmer Envision multi-label analyzer.

[3] = Pharmacokinetic experiment in rats; assay type: in vivo, Sprague-Dawley rats; parameters: Cl pred: unit not given here; conditions: rat; for MRT inf: read-out: MRTINF pred; for F (oral availability): PO 20 mg/kg vs IV 2 mg/kg
Procedure: Rats were fed with a standard diet and water. Fasting began 16 hours before the test. The drugs were dissolved in PEG400 and dimethyl sulfoxide. Blood was collected from the eyelids at a time point of 0.083 hour, 0.25 hour, 0.5 hour, 1 hour, 2 hours, 4 hours, 6 hours, 8 hours, 12 hours, and 24 hours after administration. Rats were briefly anesthetized after inhalation of ether, and 300 μL of blood samples were collected from the eyelids to test tubes. There was 30 μL of 1% heparin salt solution in the test tube. […] After the blood sample was collected at the last time point, rats were anesthetized with ether and sacrificed. Immediately after the collection, blood samples were sufficiently mixed by gently inverting the tube at least 5 times, and were placed on ice. […] Plasma was stored at −80° C. prior to analysis. The concentration of the compounds disclosed herein in plasma was determined by LC-MS/MS. Pharmacokinetic parameters were calculated based on drug concentrations in plasma of each animal at different time points.

[4] = tested on: CML; conditions: combined with nilotinib; cited from earlier work
[5] = male, Sprague-Dawley, plasma, IV 2 mg/kg single dose
[6] = male, Sprague-Dawley, plasma, PO 20 mg/kg single dose

## Cc1ccc(NC(=O)c2ccc(CN3CCN(C)CC3)cc2)cc1Nc1nccc(-c2cccnc2)n1 [Imatinib]
[1]
  release of Ebola viral particles from infected cells: stop the release of Ebola viral particles

## O=C(Nc1ccc(OC(F)(F)Cl)cc1)c1cnc(N2CC[C@@H](O)C2)c(-c2nnn[nH]2)c1 [Example 5, (R)-6-(3-hydroxypyrrolidin-1-yl)-5-(1H-1,2,34-tetrazol-5-yl)-N-(4-(chlorodifluoromethoxy)phenyl)nicotinamide]
[2]
  IC50: > 1 µM

## O=C(Nc1ccc(OC(F)(F)Cl)cc1)c1cnc(N2CC[C@@H](O)C2)c(-c2cnn[nH]2)c1 [Example 4, (R)-6-(3-hydroxypyrrolidin-1-yl)-5-(1H-1,2,3-triazol-5-yl)-N-(4-(chlorodifluoromethoxy)phenyl)nicotinamide]
[2]; Mus musculus, BaF3, 72 h
  IC50: > 1 µM

## O=C(Nc1ccc(OC(F)(F)Cl)cc1)c1cnc(N2CC[C@@H](O)C2)c(-c2ncns2)c1 [Example 6]
[2]; Mus musculus, BaF3, 72 h
  IC50: > 1 µM

## O=C(Nc1ccc(OC(F)(F)Cl)cc1)c1cnc(N2CC[C@@H](O)C2)c(-c2ccns2)c1 [Example 3, (R)-6-(3-hydroxypyrrolidin-1-yl)-5-(isothiazol-5-yl)-N-(4-(chlorodifluoromethoxy)phenyl) nicotinamide]
[2]; Mus musculus, BaF3, 72 h
  IC50: > 1 µM

## Cc1cn(-c2cc(NC(=O)c3ccc(C)c(Nc4nccc(-c5cccnc5)n4)c3)cc(C(F)(F)F)c2)cn1 [nilotinib]
[1]
  release of Ebola viral particles from infected cells: stop the release of Ebola viral particles

## O=C(Nc1ccc(OC(F)(F)Cl)cc1)c1cnc(N2CC[C@@H](O)C2)c(-c2cnsc2)c1 [Example 2, (R)-6-(3-hydroxypyrrolidin-1-yl)-5-(isothiazol-4-yl)-N-(4-(chlorodifluoromethoxy)phenyl) nicotinamide]
[3]; [5]
  AUC(0-t): 5450 ng·h/mL
  Cmax: 5280 ng/mL
  MRT inf: 1.17 h
[3]; male, Sprague-Dawley, plasma, IV 2 mg/kg single dose, read-out: Vz pred
  Vd: 0.57 L/kg
[3]; [6]
  AUC(0-t): 21100 ng·h/mL
  Cmax: 2580 ng/mL
  MRT inf: 5.13 h
[3]; IV 2 mg/kg single dose
  Cl pred: 0.37
[3]; PO 20 mg/kg single dose
  Cl pred: 0.96
  Vz pred: 2.56 L/kg
[3]
  F (oral availability): 38.70%
[3]; oral administration
  metabolic parameters (Cmax, AUClast, F %) compared with ABL-001: better metabolic parameters
[2]; Mus musculus, BaF3, 72 h
  IC50: > 1 µM

## O=C(Nc1ccc(OC(F)(F)Cl)cc1)c1cnc(N2CC[C@@H](O)C2)c(-c2ccn[nH]2)c1 [ABL-001, (R)—N-(4-(chlorodifluoromethoxy)phenyl)-6-(3-hydroxypyrrolidin-1-yl)-5-(1H-pyrazol-5-yl)nicotinamide, reference compound]
[4]
  eradication of CML in a mouse model: effective in eradicating CML
[3]
  F (oral availability): 19.86%

## O=C(Nc1ccc(OC(F)(F)Cl)cc1)c1cnc(N2CC[C@@H](O)C2)c(-c2ccsn2)c1 [Example 1, (R)-6-(3-hydroxypyrrolidin-1-yl)-5-(isothiazol-3-yl)-N-(4-(chlorodifluoromethoxy)phenyl) nicotinamide]
[2]; Mus musculus, BaF3, 72 h
  IC50: > 1 µM
